19 compounds from patent publication US20250019374A1, “PROTEIN TYROSINE PHOSPHATASE INHIBITORS AND METHODS OF USE THEREOF” (Calico Life Sciences LLC, priority 2021, published 2025) can be followed below.

Usually IC50 stands for the midpoint of a concentration-inhibition curve. Broadly, the EC50 is the concentration giving half of the maximal effect.

Where two headings read alike, the source gives them in different places.

Assay [1] deals with His tagged PTPN2 (TC45) protein (Homo sapiens (Human), UniProt P17706). In words: PTPN2 Mobility Shift Assay (MSA). It counts as biochemical. To be noted: for Dihydrobenzofuran or Indoline x-fold>potency biochemical: x-fold versus corresponding chromane comparator, PTPN2 MSA. In outline: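 His-tagged human PTPN2 (TC45), 0.5 nM, preincubated with compound (12-point, 1:3) 10 min at room temperature in HEPES pH 7.5 buffer with EDTA, EGTA, DTT. Dephosphorylation of 2 μM fluorescent phospho-insulin-receptor peptide over 10 min read by mobility shift; IC50 from % inhibition.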

Assay [2] addresses His tagged full-length PTPN1 protein (Homo sapiens (Human), UniProt P18031). Put plainly: PTPN1 Mobility Shift Assay (MSA). The assay is classed as biochemical. The conditions noted are these: enzyme 0.5 nM, substrate 2 μM. In outline:
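Enzyme at 0.5 nM was preincubated with compound (12-point, 1:3 dilution) for 10 min at room temperature in pH 7.5 HEPES buffer with EDTA, EGTA and DTT. OG488-labelled phosphorylated insulin-receptor peptide at 2 µM was then added for 10 min. After quench, % substrate dephosphorylation was read by mobility shift, and IC50 came from % inhibition.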

Assay [3] has as its system IFNγ-induced STAT1 phosphorylation (pSTAT1) in B16F10 cells. Put plainly: B16F10 Phospho-STAT1 HTRF proximal pharmacodynamic (PD) assay. It counts as cell-based, murine. To be noted: for EC50: B16-F10, B16F10 cells; for Dihydrobenzofuran or Indoline x-fold>potency cellular: x-fold versus corresponding chromane comparator, B16F10 pSTAT1. Summed up:
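B16F10 cells in phenol red-free DMEM/10% FBS were dosed for 3 h at 37 °C in a 10-point, 3-fold series from 50 μM, then stimulated with 100 nM mouse IFNγ for 10 min and stopped with 3.3 μM staurosporine. pSTAT1 in lysates was measured by HTRF (665 nm emission), and EC50s were fitted from dose-response curves.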
Background: Time-resolved FRET reads energy transfer from a long-lived donor to a nearby acceptor.

Where [4] appears, read: 3 hours compound, 100 nM mouse IFNγ 10 minutes, read-out: B16F10 IFNγ Induced pSTAT1 EC50.
Where [5] appears, read: Table 3, dihydrobenzofuran or indoline compound (X = O or NH).
The mark [6] stands for this setting: Mus musculus, Table 3, dihydrobenzofuran or indoline compound (X = O or NH), read-out: pSTAT1 EC50.

Sequence of His tagged PTPN2 (TC45) protein (P17706 other isoform, or with tags, fused parts or gaps): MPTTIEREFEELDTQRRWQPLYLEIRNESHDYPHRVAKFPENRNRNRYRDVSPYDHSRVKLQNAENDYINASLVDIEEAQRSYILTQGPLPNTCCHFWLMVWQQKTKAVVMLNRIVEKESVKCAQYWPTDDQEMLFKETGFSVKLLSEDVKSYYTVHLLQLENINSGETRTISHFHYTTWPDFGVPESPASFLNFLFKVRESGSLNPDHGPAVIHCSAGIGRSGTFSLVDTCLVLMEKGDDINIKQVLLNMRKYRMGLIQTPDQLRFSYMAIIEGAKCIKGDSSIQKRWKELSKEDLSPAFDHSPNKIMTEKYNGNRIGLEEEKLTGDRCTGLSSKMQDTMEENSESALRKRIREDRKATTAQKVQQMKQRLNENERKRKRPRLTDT
Sequence of His tagged full-length PTPN1 protein (P18031 whole entry): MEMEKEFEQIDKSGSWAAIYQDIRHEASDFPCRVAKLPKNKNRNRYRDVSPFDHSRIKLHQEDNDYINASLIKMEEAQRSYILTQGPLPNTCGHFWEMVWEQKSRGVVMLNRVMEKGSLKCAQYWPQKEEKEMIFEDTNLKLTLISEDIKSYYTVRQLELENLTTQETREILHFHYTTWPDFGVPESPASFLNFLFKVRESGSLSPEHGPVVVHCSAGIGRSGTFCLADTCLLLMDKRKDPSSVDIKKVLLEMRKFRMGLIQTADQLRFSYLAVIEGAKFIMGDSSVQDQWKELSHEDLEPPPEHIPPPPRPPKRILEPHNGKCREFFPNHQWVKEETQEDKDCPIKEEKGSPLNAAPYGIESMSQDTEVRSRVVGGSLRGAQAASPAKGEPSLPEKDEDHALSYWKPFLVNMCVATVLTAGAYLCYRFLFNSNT

Take `O=C1CN(c2c(O)cc3c(c2F)C[C@H](CNCCC2CC(F)(F)C2)O3)S(=O)(=O)N1` [Compound 106, 5-[(2R)-2-({[2-(3,3-difluorocyclobutyl)ethyl]amino}methyl)-4-fluoro-6-hydroxy-2,3-dihydro-1-benzofuran-5-yl]-1λ^6,2,5-thiadiazolidine-1,1,3-trione]: the IC50 is below 10 nM in assay [1] (enzyme 0.5 nM, substrate 2 μM) and 10 to 100 nM in assay [2]. For the same compound, the EC50 in assay [3] (setting [4]) is 1860 nM.
On to `O=C1CN(c2c(O)cc3c(c2F)C[C@H](CNCC2CCC2)O3)S(=O)(=O)N1` [Compound 119, 5-[(2R)-2-{[(cyclobutylmethyl)amino]methyl}-4-fluoro-6-hydroxy-2,3-dihydro-1-benzofuran-5-yl]-1λ^6,2,5-thiadiazolidine-1,1,3-trione], for which the IC50 in assay [1] (enzyme 0.5 nM, substrate 2 μM) lay within 10 to 100 nM; in assay [2] it was 10 to 100 nM. Besides, the EC50 in assay [3] (setting [4]) was 848 nM.
Consider `O=C1CN(c2c(O)cc3c(c2F)C[C@H](CNCCCc2ccccc2)O3)S(=O)(=O)N1` [Compound 127, 5-[(2R)-4-fluoro-6-hydroxy-2-{[(3-phenylpropyl)amino]methyl}-2,3-dihydro-1-benzofuran-5-yl]-1λ^6,2,5-thiadiazolidine-1,1,3-trione], for which the IC50 in assay [1] (setting [5]) was 4.05 nM; in assay [1] (enzyme 0.5 nM, substrate 2 μM), below 10 nM; in assay [2], 10 to 100 nM. The “Dihydrobenzofuran or Indoline x-fold>potency biochemical” value in assay [1] stood at 4.7. Also, the EC50 in assay [3] (setting [4]) and in assay [3] (setting [6]) was 10800 nM throughout. Also, the “Dihydrobenzofuran or Indoline x-fold>potency cellular” value in assay [3] was above 4.6.
`CC[C@@H](C)NC[C@H]1Cc2c(cc(O)c(N3CC(=O)NS3(=O)=O)c2F)N1` [Compound 149, 5-[(2R)-2-({[(2R)-butan-2-yl]amino}methyl)-4-fluoro-6-hydroxy-2,3-dihydro-1H-indol-5-yl]-1λ^6,2,5-thiadiazolidine-1,1,3-trione]: the IC50 was below 10 nM in assay [1] (enzyme 0.5 nM, substrate 2 μM) and 10 to 100 nM in assay [2]. For the same compound, the EC50 in assay [3] (setting [4]) was 1560 nM.
On the same counts, the results for `O=C1CN(c2c(O)cc3c(c2F)C[C@H](CNCC2CCCC2)N3)S(=O)(=O)N1` [Compound 146, 5-[(2R)-2-{[(cyclopentylmethyl)amino]methyl}-4-fluoro-6-hydroxy-2,3-dihydro-1H-indol-5-yl]-1λ^6,2,5-thiadiazolidine-1,1,3-trione] are 10 to 100 nM, 10 to 100 nM and 1830 nM.
For the compound `CCC(C)CNC[C@H]1Cc2c(cc(O)c(N3CC(=O)NS3(=O)=O)c2F)O1` (stereo partly drawn) [Compound 116, 5-[(2R)-4-fluoro-6-hydroxy-2-{[(2-methylbutyl)amino]methyl}-2,3-dihydro-1-benzofuran-5-yl]-1λ^6,2,5-thiadiazolidine-1,1,3-trione], the IC50 in assay [1] (enzyme 0.5 nM, substrate 2 μM) lay in the range of 10 to 100 nM; in assay [2] it was 10 to 100 nM. Also, in assay [3] (setting [4]), the EC50 is 736 nM.
Turning to `O=C1CN(c2c(O)cc3c(c2F)C[C@H](CNCCC2(CO)CCCC2)O3)S(=O)(=O)N1` [Compound 122, 5-{(2R)-4-fluoro-6-hydroxy-2-[({2-[1-(hydroxymethyl)cyclopentyl]ethyl}amino)methyl]-2,3-dihydro-1-benzofuran-5-yl}-1λ^6,2,5-thiadiazolidine-1,1,3-trione], the IC50 was in the range of 10 to 100 nM in assay [1] (enzyme 0.5 nM, substrate 2 μM) and 10 to 100 nM in assay [2]. The EC50 in assay [3] (setting [4]) is 1980 nM.
As to `O=C1CN(c2c(O)cc3c(c2F)CC(CNCCC2COC2)N3)S(=O)(=O)N1` (stereo not shown) [Compound 144, 5-[4-fluoro-6-hydroxy-2-({[2-(oxetan-3-yl)ethyl]amino}methyl)-2,3-dihydro-1H-indol-5-yl]-1λ^6,2,5-thiadiazolidine-1,1,3-trione], the half-inhibitory concentration (IC50) in assay [1] (enzyme 0.5 nM, substrate 2 μM) was 10 to 100 nM; in assay [2], above 100 nM. Moreover, the 50% effective concentration (EC50) in assay [3] (setting [4]) worked out at 7180 nM.
In the same order, the values of `CC(C)CNC[C@H]1Cc2c(cc(O)c(N3CC(=O)NS3(=O)=O)c2F)N1` [Compound 133, 5-[(2R)-4-fluoro-6-hydroxy-2-{[(2-methylpropyl)amino]methyl}-2,3-dihydro-1H-indol-5-yl]-1λ^6,2,5-thiadiazolidine-1,1,3-trione] are 10 to 100 nM, 10 to 100 nM and 1240 nM.
For `O=C1CN(c2c(O)cc3c(c2F)C[C@H](CNCCC2CCOC2)O3)S(=O)(=O)N1` (stereo partly drawn) [Compound 108, 5-[(2R)-4-fluoro-6-hydroxy-2-({[2-(oxolan-3-yl)ethyl]amino}methyl)-2,3-dihydro-1-benzofuran-5-yl]-1λ^6,2,5-thiadiazolidine-1,1,3-trione], the IC50 was 15.8 nM in assay [1] (setting [5]); 10 to 100 nM in assay [1] (enzyme 0.5 nM, substrate 2 μM); 10 to 100 nM in assay [2]. For the same compound, in assay [1], the “Dihydrobenzofuran or Indoline x-fold>potency biochemical” value was 2.3. Moreover, the EC50 in assay [3] (setting [4]) and in assay [3] (setting [6]) was 1910 nM throughout. The “Dihydrobenzofuran or Indoline x-fold>potency cellular” value in assay [3] was determined as 11.8.
Turning to `O=C1CN(c2c(O)cc3c(c2F)C[C@H](CNCC2CC2)O3)S(=O)(=O)N1` [Compound 117, 5-[(2R)-2-{[(cyclopropylmethyl)amino]methyl}-4-fluoro-6-hydroxy-2,3-dihydro-1-benzofuran-5-yl]-1λ^6,2,5-thiadiazolidine-1,1,3-trione], the IC50 in assay [1] (enzyme 0.5 nM, substrate 2 μM) was in the range of 10 to 100 nM; in assay [2] it was 10 to 100 nM. In addition, in assay [3] (setting [4]), the EC50 came out at 818 nM.
As for `O=C1CN(c2c(O)cc3c(c2F)C[C@H](CNCCC2CCCC2)O3)S(=O)(=O)N1` [Compound 103, 5-[(2R)-2-{[(2-cyclopentylethyl)amino]methyl}-4-fluoro-6-hydroxy-2,3-dihydro-1-benzofuran-5-yl]-1λ^6,2,5-thiadiazolidine-1,1,3-trione], the IC50 in assay [1] (enzyme 0.5 nM, substrate 2 μM) is below 10 nM; in assay [2] it was 10 to 100 nM. In addition, in assay [3] (setting [4]), the EC50 was found to be 1870 nM.
In the case of `O=C1CN(c2c(O)cc3c(c2F)C[C@H](CNCC2(CF)CC2)O3)S(=O)(=O)N1` [Compound 131, 5-{(2R)-4-fluoro-2-[({[1-(fluoromethyl)cyclopropyl]methyl}amino)methyl]-6-hydroxy-2,3-dihydro-1-benzofuran-5-yl}-1λ^6,2,5-thiadiazolidine-1,1,3-trione], the 50% inhibitory concentration (IC50) is 20.9 nM in assay [1] (setting [5]); 10 to 100 nM in assay [1] (enzyme 0.5 nM, substrate 2 μM); 10 to 100 nM in assay [2]. For the same compound, in assay [1], the “Dihydrobenzofuran or Indoline x-fold>potency biochemical” value is given as 2.4. For the same compound, the EC50 in assay [3] (setting [4]) and in assay [3] (setting [6]) was 22100 nM throughout. The “Dihydrobenzofuran or Indoline x-fold>potency cellular” value in assay [3] is recorded as above 2.3.
For `O=C1CN(c2c(O)cc3c(c2F)C[C@H](CNCCC2(CO)CCC2)O3)S(=O)(=O)N1` [Compound 121, 5-{(2R)-4-fluoro-6-hydroxy-2-[({2-[1-(hydroxymethyl)cyclobutyl]ethyl}amino)methyl]-2,3-dihydro-1-benzofuran-5-yl}-1λ^6,2,5-thiadiazolidine-1,1,3-trione], the IC50 was in the range of 10 to 100 nM in assay [1] (enzyme 0.5 nM, substrate 2 μM) and 10 to 100 nM in assay [2]. Besides, the EC50 in assay [3] (setting [4]) was determined as 1740 nM.
As to `CCC(CC)CNC[C@H]1Cc2c(cc(O)c(N3CC(=O)NS3(=O)=O)c2F)N1` [Compound 134, 5-[(2R)-2-{[(2-ethylbutyl)amino]methyl}-4-fluoro-6-hydroxy-2,3-dihydro-1H-indol-5-yl]-1λ^6,2,5-thiadiazolidine-1,1,3-trione], the IC50 in assay [1] (enzyme 0.5 nM, substrate 2 μM) lay in the range of 10 to 100 nM; in assay [2], 10 to 100 nM. Also, in assay [3] (setting [4]), the concentration giving a half-maximal response (EC50) was determined as 947 nM.
Take `CC(C)CCNC[C@H]1Cc2c(cc(O)c(N3CC(=O)NS3(=O)=O)c2F)N1` [Compound 139, 5-[(2R)-4-fluoro-6-hydroxy-2-{[(3-methylbutyl)amino]methyl}-2,3-dihydro-1H-indol-5-yl]-1λ^6,2,5-thiadiazolidine-1,1,3-trione]: the IC50 was 19.8 nM in assay [1] (setting [5]); 10 to 100 nM in assay [1] (enzyme 0.5 nM, substrate 2 μM); 10 to 100 nM in assay [2]. Further, in assay [1], the “Dihydrobenzofuran or Indoline x-fold>potency biochemical” value stood at 0.8. In addition, the EC50 in assay [3] (setting [4]) and in assay [3] (setting [6]) was 1560 nM each time. Besides, in assay [3], the “Dihydrobenzofuran or Indoline x-fold>potency cellular” value is 4.5.
Regarding `CCCN(CCC)C[C@H]1Cc2c(cc(O)c(N3CC(=O)NS3(=O)=O)c2F)O1` [Compound 110, 5-{(2R)-2-[(dipropylamino)methyl]-4-fluoro-6-hydroxy-2,3-dihydro-1-benzofuran-5-yl}-1λ^6,2,5-thiadiazolidine-1,1,3-trione], the IC50 in assay [1] (enzyme 0.5 nM, substrate 2 μM) fell in the range of 10 to 100 nM; in assay [2], 10 to 100 nM. The concentration for a half-maximal effect (EC50) in assay [3] (setting [4]) was determined as 18000 nM.
For the compound `O=C1CN(c2c(O)cc3c(c2F)C[C@H](CNCC2CCOCC2)O3)S(=O)(=O)N1` [Compound 114, 5-[(2R)-4-fluoro-6-hydroxy-2-({[(oxan-4-yl)methyl]amino}methyl)-2,3-dihydro-1-benzofuran-5-yl]-1λ^6,2,5-thiadiazolidine-1,1,3-trione], the IC50 lay in the range of 10 to 100 nM in assay [1] (enzyme 0.5 nM, substrate 2 μM) and 10 to 100 nM in assay [2]. Also, the EC50 in assay [3] (setting [4]) was found to be 1460 nM.
Take `O=C1CN(c2c(O)cc3c(c2F)C[C@H](CNCC2CCCC2)O3)S(=O)(=O)N1` [Compound 113, 5-[(2R)-2-{[(cyclopentylmethyl)amino]methyl}-4-fluoro-6-hydroxy-2,3-dihydro-1-benzofuran-5-yl]-1λ^6,2,5-thiadiazolidine-1,1,3-trione]: the IC50 in assay [1] (enzyme 0.5 nM, substrate 2 μM) lay in the range of 10 to 100 nM; in assay [2], 10 to 100 nM. Besides, the EC50 in assay [3] (setting [4]) amounted to 770 nM.
